In US6608032B1, “Medicinal compositions” (Takara Shuzo Co., Ltd., priority 1999, dated 2003):

What was measured:
[1] = test system: heme oxygenase 1 protein; test: Heme oxygenase 1 induction in RAW264.7 cells (Western blot); format: cell-based; set-up: key: − represents no band observed; increase in the intensity of the band is represented as follows:+−<+<++; increase in the intensity of the band is represented as follows:+−<+<++; increase in the intensity of the band is represented as follows:+−<+<++; conditions: positive control, 5 μl of 3 mM solution in dimethyl sulfoxide per 5 ml well; 15 hours
Method: RAW264.7 cells (ATCC TIB 71) were suspended in Dulbecco's modified Eagle's medium (Bio Whittaker, 12-604F) containing 10% fetal calf serum (Gibco) at a concentration of 3×10^5 cells/ml. 5 ml of the suspension was added to each well of a 6-well microtiter plate and the plate was incubated at 37° C. overnight in the presence of 5% CO2. 50 μl of a solution containing agarobiose or agarohexaose in Referential Example 1 at a concentration of 20 mM, 10 mM or 5 mM in water was added to the well. The plate was incubated for 15 hours. A positive control for heme oxygenase 1 induction in which 5 μl of 3 mM solution of 15-deoxy-Δ12,14 prostaglandin J2 (Cayman Chemical, 18570) in dimethyl sulfoxide was added, and a negative control in which water was added were provided. The cells were recovered by detaching the cells from the plate using a scraper and suspended in 0.1 M tris-HCl buffer (pH 7.5) containing 0.05 mM pepstatin A (Sigma, P5318), 0.2 mM leupeptin (Sigma, L2884), 1 mM phenylmethylsulfonyl fluoride (Nacalai Tesque, 273-27), 10 mm ethylenediaminetetraacetic acid disodium salt and 0.1% Triton X-100. A supernatant obtained by centrifuging the suspension after freezing and thawing was used as a protein fraction. The content of protein in the protein fraction was determined using Micro BCA Protein Assay Reagent (a product of Pierce sold by Takara Shuzo, P7411). A sample from the protein fraction prepared as described above was mixed with an equal volume of 0.125 M tris-hydrochloride buffer (pH 6.8) containing 4% sodium lauryl sulfate (SDS), 2% 2-mercaptoethanol, 0.001% Bromophenol Blue and 20% glycerol. After treatment at 100° C. for 5 minutes, a portion corresponding to 10 μg of protein was loaded on 12.5% SDS-polyacrylamide gel and electrophoresed at a constant current of 20 mA. After electrophoresis, the gel was transferred to a PVDF membrane (Millipore, IPVH000 10) at a constant voltage of 15 V for 25 minutes using a blotting buffer (containing 48 mM tris, 39 mM glycine, 20% methanol and 0.0375% SDS) and Trans-Blot SD Cell Semi-Dry blotting apparatus (Bio-Rad) according to the attached protocol. After transferring, the PVDF membrane was blocked in a solution of Block Ace (Dainippon Pharmaceutical, UK-B25) at 4° C. overnight. After blocking, the membrane washed three times in phosphate buffered saline containing 0.1% Tween 20 for 15 minutes with gentle shaking. The membrane was reacted in phosphate buffered saline containing 10% Block Ace, 0.1% Tween 20 and 200 ng/ml of anti-heme oxygenase 1 antibody (N-19; Santa Cruz, sc-7696) at room temperature for 1 hour with gentle shaking, and then washed three times in phosphate buffered saline containing 0.1% Tween 20 for 15 minutes with gentle shaking. The membrane was reacted in phosphate buffered saline containing 10% Block Ace, 0.1% Tween 20 and 0.1% peroxidase-labeled rabbit anti-goat IgG (H+L) antibody (Zymed, 61-1620) at room temperature for 1 hour with gentle shaking, and then washed five times in phosphate buffered saline containing 0.1% Tween 20 for 15 minutes with gentle shaking. The PVDF membrane was stained using Western Blot Chemiluminescence Reagent Plus (a product of NEN Life Science Products sold by Daiichi Pure Chemicals, NEL103) according to the attached protocol and exposed to an X-ray film (Kodak, CAT165 1454). After exposure, the film was developed using FPM800 (Fuji Film).
The intensity of the band depended on the concentration of agarobiose or agarohexaose. In the table, the intensity of the band for heme oxygenase 1 protein is expressed by the mark+. Specifically, − represents no band observed, and increase in the intensity of the band is represented as follows:+−<+<++.

[2] = test system: α-glucosidase; test: α-glucosidase inhibition with p-nitrophenyl-α-D-glucopyranoside; format: biochemical, S. cerevisiae
Method: (1) An α-glucosidase activity was measured by allowing α-glucosidase to act on p-nitrophenyl-α-D-glucopyranoside (a chromogenic substrate) and calorimetrically quantifying 4-nitrophenol released by hydrolysis.
10 μl of α-glucosidase solution [40 mU/ml, derived from S. cerevisiae, Sigma, dissolved in 10 mM phosphate buffer (pH 7.2 at 37° C.)] and 10 μl of a solution containing a test sample dissolved in 10 mM phosphate buffer (pH 7.2 at 37° C.) were mixed. 80 μl of a 1.5 mg/ml substrate solution [Sigma, dissolved in 10 mM phosphate buffer (pH 7.2 at 37° C.)] was added thereto to initiate the reaction. After reacting at 37° C. for 40 minutes, the absorbance at 410 nm was measured using Shimadzu uv2200. The remaining activity therein was calculated defining the activity observed without the addition of test sample as 100%.
Agarobiose, agarotetraose, agarohexaose and agarooctaose used as test samples were those prepared in Referential Example 1. Commercially available products of anhydrogalactose (Funakoshi), neoagarobiose (Sigma), neoagarotetraose (Funakoshi) and neoagarohexaose (Funakoshi) were used.

[3] = test system: RAW264.7 cells; test: Prostaglandin E2 generation by crude enzyme fraction of RAW264.7 cells pre-treated with sample and LPS; format: cell-based; conditions: cells treated with 200 μl of 10 mM sample per 20 ml, 5 hours before LPS
Method: (1) RAW264.7 cells (ATCC TIB 71) were suspended in Dulbecco's modified Eagle's medium (Bio Whittaker, 12-604F) containing 10% fetal calf serum (Gibco) at a concentration of 1×10^6 cells/ml. 20 ml of the suspension was added to a 10-cm Petri dish and the dish was incubated at 37° C. overnight in the presence of 5% CO2. 200 μl of a solution containing agarohexaose or DGE (obtained in Example 15-(2) below) at a concentration of 10 mM in water was added to the dish. The dish was incubated for 5 hours. 200 μl of a solution containing lipopolysaccharide (LPS, Sigma, L-2012) at a concentration of 100 μg/ml in water was added thereto. The dish was incubated for additional 12 hours. As a control, 200 μL of water was added in place of the sample. The cells were recovered by detaching the cells from the plate using a scraper and suspended in 0.1 M tris buffer (pH 8.0) containing 1 μg/ml pepstatin A (Sigma, P5318), 1 μg/ml leupeptin (Sigma, L2884) and 1 mM phenylmethylsulfonyl fluoride (Nacalai Tesque, 273-27). The cell membrane was destroyed by sonication. A supernatant collected by centrifugation was used as a crude enzyme fraction. The content of protein in the crude enzyme fraction was determined using Micro BCA Protein Assay Reagent (a product of Pierce sold by Takara Shuzo, P7411). 2.5 μL of 200 mM aqueous solution of glutathione (Nacalai Tesque, 170-50), 2.5 μL of a suspension containing L-adrenaline (Nacalai Tesque, 010-04) at a concentration of 200 mM in water, and 1 μL of 3 mM solution of arachidonic acid (Cayman, 90010.1) or 1 μL of 100 μg/mL solution of prostaglandin H2 (Cayman, 17020) were added to 100 μL of the sample from the crude enzyme fraction prepared as described above. The mixture was reacted at 37° C. for 30 minutes. The reaction was stopped by heating at 100° C. for 2 minutes. The content of prostaglandin E2 in the reaction mixture was measured using Prostaglandin E2 ELISA Kit (Neogen, 404110).

[4] = test system: enzymes involved in the synthesis of prostaglandin E2 from arachidonic acid; test: Prostaglandin E2 generation from arachidonic acid, sample added directly to crude enzyme fraction; format: biochemical; conditions: 1 μL of 100 mM agarobiose, 100 mM agarohexaose, 10 mM DGE or 13 mM nimesulide added to 100 μL crude enzyme fraction; FIG. 15
Method: 2.5 μL of 200 mM aqueous solution of glutathione, 2.5 μL of a suspension containing L-adrenaline at a concentration of 200 mM in water, and 1 μL of 100 mM aqueous solution of agarobiose, 100 mM aqueous solution of agarohexaose or 10 mM aqueous solution of DGE as a sample were added to 100 μL of the control sample from the crude enzyme fraction prepared in Example 15. 1 μL of water was added as a negative control. 1 μL of 13 mM nimesulide (Cayman, 70640) solution was added as a positive control. 1 μL of 3 mM arachidonic acid solution was then added to start the reaction. The mixture was reacted at 37° C. for 5 minutes. The reaction was stopped by heating at 100° C. for 2 minutes. The content of prostaglandin E2 in the reaction mixture was measured using Prostaglandin E2 ELISA Kit.

| Compound | Intensity of band for heme oxygenase 1 protein [1] | Activity of inhibiting α-glucosidase (% remaining activity) ([2]; 5 μM) [%] | Activity of inhibiting α-glucosidase (% remaining activity) ([2]; 50 μM) [%] | Activity of inhibiting α-glucosidase (% remaining activity) ([2]; 500 μM) [%] | Activity of inhibiting α-glucosidase (% remaining activity) ([2]; 1000 μM) [%] | Activity of inhibiting α-glucosidase (% remaining activity) ([2]; 5000 μM) [%] | production of prostaglandin E2, arachidonic acid added ([3]; FIG. 13) | production of prostaglandin E2, prostaglandin H2 added ([3]; FIG. 14) | production of prostaglandin E2 from arachidonic acid [4] |
| --- | --- | --- | --- | --- | --- | --- | --- | --- | --- |
| CCCCC/C=C/C=C1/C(=O)C=C[C@@H]1C/C=C\CCCC(=O)O [15-deoxy-Δ12,14 prostaglandin J2, reference compound] | + | – | – | – | – | – | – | – | – |
| OC1O[C@@H]2CO[C@@H]([C@H]2O)[C@H]1O (stereo partly drawn) [Anhydrogalactose, 3,6-anhydrogalactopyranose] | – | 100 | 100 | 100 | 100 | 100 | – | – | – |
| O=C1C=CC(CO)OC1O [DGE, L-glycero-1,5-epoxy-1αβ, 6-dihydroxy-cis-hex-3-en-2-one] | – | – | – | – | – | – | suppressed as compared with the control | suppressed as compared with the control | not suppressed |
| OC[C@H]1OC(O)[C@H](O)[C@@H](O[C@@H]2O[C@H]3CO[C@@H]([C@@H]2O)[C@@H]3O)[C@H]1O (stereo partly drawn) [Neoagarobiose, neoagarobiose, reference compound] | – | 100 | 100 | 100 | 100 | 100 | – | – | – |
| OC[C@H]1O[C@@H](O)[C@H](O)[C@@H](O[C@@H]2O[C@H]3CO[C@@H]([C@@H]2O)[C@@H]3O[C@@H]2O[C@H](CO)[C@H](O)[C@H](O[C@@H]3O[C@H]4CO[C@@H]([C@@H]3O)[C@@H]4O[C@@H]3O[C@H](CO)[C@H](O)[C@H](O[C@@H]4O[C@H]5CO[C@@H]([C@@H]4O)[C@@H]5O)[C@H]3O)[C@H]2O)[C@H]1O [Neoagarohexaose, neoagarohexaose, reference compound] | – | 100 | 100 | 93 | 71 | 8 | – | – | – |
| OC[C@H]1O[C@@H](O)[C@H](O)[C@@H](O[C@@H]2O[C@H]3CO[C@@H]([C@@H]2O)[C@@H]3O[C@@H]2O[C@H](CO)[C@H](O)[C@H](O[C@@H]3O[C@H]4CO[C@@H]([C@@H]3O)[C@@H]4O)[C@H]2O)[C@H]1O [Neoagarotetraose, neoagarotetraose, reference compound] | – | 100 | 93 | 89 | 76 | 42 | – | – | – |
| CS(=O)(=O)Nc1ccc([N+](=O)[O-])cc1Oc1ccccc1 [nimesulide, reference compound] | – | – | – | – | – | – | – | – | suppressed |
| agarooctaose | – | 91 | 90 | 32 | 26 | 11 | – | – | – |
